{"source": "ChEMBL document CHEMBL1201862", "about": "“PubChem BioAssay data set” (2004)", "experiment_in_all_cases": "inhibition of tumour cell growth, NCI panel, 48 h", "key": {"NCI-H226": {"tested_on": "NCI-H226"}, "SNB-75": {"tested_on": "SNB-75"}, "PC-3": {"tested_on": "PC-3"}, "T47D": {"tested_on": "T47D"}, "TK-10": {"tested_on": "TK-10"}, "K562": {"tested_on": "K562"}, "EKVX": {"tested_on": "EKVX"}, "KM12": {"tested_on": "KM12"}, "SK-MEL-28": {"tested_on": "SK-MEL-28"}, "BT-549": {"tested_on": "BT-549"}, "786-0": {"tested_on": "786-0"}, "MOLT-4": {"tested_on": "MOLT-4"}, "UACC-62": {"tested_on": "UACC-62"}, "SR": {"tested_on": "SR"}, "HCC 2998": {"tested_on": "HCC 2998"}, "MDA-N": {"tested_on": "MDA-N"}, "MCF7": {"tested_on": "MCF7"}, "LOX IMVI": {"tested_on": "LOX IMVI"}, "NCI/ADR-RES": {"tested_on": "NCI/ADR-RES"}, "COLO 205": {"tested_on": "COLO 205"}, "UACC-257": {"tested_on": "UACC-257"}, "OVCAR-5": {"tested_on": "OVCAR-5"}, "OVCAR-3": {"tested_on": "OVCAR-3"}, "HCT-116": {"tested_on": "HCT-116"}, "OVCAR-4": {"tested_on": "OVCAR-4"}, "NCI-H460": {"tested_on": "NCI-H460"}, "A549": {"tested_on": "A549"}, "UO-31": {"tested_on": "UO-31"}, "SF-268": {"tested_on": "SF-268"}, "M14": {"tested_on": "M14"}, "SN12C": {"tested_on": "SN12C"}, "CAKI-1": {"tested_on": "CAKI-1"}, "MDA-MB-231": {"tested_on": "MDA-MB-231"}, "SF-295": {"tested_on": "SF-295"}, "DU-145": {"tested_on": "DU-145"}, "Hs-578T": {"tested_on": "Hs-578T"}, "HL-60": {"tested_on": "HL-60"}, "SK-MEL-2": {"tested_on": "SK-MEL-2"}, "HOP-62": {"tested_on": "HOP-62"}, "HT-29": {"tested_on": "HT-29"}, "U-251": {"tested_on": "U-251"}, "CCRF-CEM": {"tested_on": "CCRF-CEM"}, "SF-539": {"tested_on": "SF-539"}, "SNB-19": {"tested_on": "SNB-19"}, "RXF 393": {"tested_on": "RXF 393"}, "NCI-H23": {"tested_on": "NCI-H23"}, "SW-620": {"tested_on": "SW-620"}, "MDA-MB-435": {"tested_on": "MDA-MB-435"}, "ACHN": {"tested_on": "ACHN"}, "NCI-H522": {"tested_on": "NCI-H522"}, "IGROV-1": {"tested_on": "IGROV-1"}, "HCT-15": {"tested_on": "HCT-15"}, "HOP-92": {"tested_on": "HOP-92"}, "A498": {"tested_on": "A498"}, "Malme-3M": {"tested_on": "Malme-3M"}, "RPMI-8226": {"tested_on": "RPMI-8226"}, "OVCAR-8": {"tested_on": "OVCAR-8"}, "SK-OV-3": {"tested_on": "SK-OV-3"}, "SK-MEL-5": {"tested_on": "SK-MEL-5"}}, "note": "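Following 48 hours of exposure in 96-well plates, responses at five concentrations were used to interpolate endpoints linearly. GI50 = concentration required for 50% inhibition of growth.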 Calls of active or inactive are those of the source. Rule as the data show it: active = GI50 up to about 1.1 µM and inactive = higher.", "data": [{"compound": "FC(F)(F)c1cccc(-c2nc3nc(Cl)c(Cl)nc3[nH]2)c1", "values": [{"measurement": "GI50", "setting": "NCI-H226", "value": "1.67 µM (inactive)"}, {"measurement": "GI50", "setting": "SNB-75", "value": "2.42 µM (inactive)"}, {"measurement": "GI50", "setting": "PC-3", "value": "2.5 µM (inactive)"}, {"measurement": "GI50", "setting": "T47D", "value": "1.29 µM (inactive)"}, {"measurement": "GI50", "setting": "TK-10", "value": "4.95 µM (inactive)"}, {"measurement": "GI50", "setting": "K562", "value": "1.74 µM (inactive)"}, {"measurement": "GI50", "setting": "EKVX", "value": "2.96 µM (inactive)"}, {"measurement": "GI50", "setting": "KM12", "value": "2.69 µM (inactive)"}, {"measurement": "GI50", "setting": "SK-MEL-28", "value": "3.13 µM (inactive)"}, {"measurement": "GI50", "setting": "BT-549", "value": "3.18 µM (inactive)"}, {"measurement": "GI50", "setting": "786-0", "value": "3.77 µM (inactive)"}, {"measurement": "GI50", "setting": "MOLT-4", "value": "2.18 µM (inactive)"}, {"measurement": "GI50", "setting": "UACC-62", "value": "0.562 µM (active)"}, {"measurement": "GI50", "setting": "SR", "value": "2.62 µM (inactive)"}, {"measurement": "GI50", "setting": "HCC 2998", "value": "3.11 µM (inactive)"}, {"measurement": "GI50", "setting": "MDA-N", "value": "2.18 µM (inactive)"}, {"measurement": "GI50", "setting": "MCF7", "value": "0.0241 µM (active)"}, {"measurement": "GI50", "setting": "LOX IMVI", "value": "2.92 µM (inactive)"}, {"measurement": "GI50", "setting": "NCI/ADR-RES", "value": "2.53 µM (inactive)"}, {"measurement": "GI50", "setting": "COLO 205", "value": "1.45 µM (inactive)"}, {"measurement": "GI50", "setting": "UACC-257", "value": "2.22 µM (inactive)"}, {"measurement": "GI50", "setting": "OVCAR-5", "value": "2.48 µM (inactive)"}, {"measurement": "GI50", "setting": "OVCAR-3", "value": "1.59 µM (inactive)"}, {"measurement": "GI50", "setting": "HCT-116", "value": "2.09 µM (inactive)"}, {"measurement": "GI50", "setting": "OVCAR-4", "value": "2.28 µM (inactive)"}, {"measurement": "GI50", "setting": "NCI-H460", "value": "2.01 µM (inactive)"}, {"measurement": "GI50", "setting": "A549", "value": "2 µM (inactive)"}, {"measurement": "GI50", "setting": "UO-31", "value": "2.24 µM (inactive)"}, {"measurement": "GI50", "setting": "SF-268", "value": "3.03 µM (inactive)"}, {"measurement": "GI50", "setting": "M14", "value": "3.42 µM (inactive)"}, {"measurement": "GI50", "setting": "SN12C", "value": "2.69 µM (inactive)"}, {"measurement": "GI50", "setting": "CAKI-1", "value": "2.73 µM (inactive)"}, {"measurement": "GI50", "setting": "MDA-MB-231", "value": "2.02 µM (inactive)"}, {"measurement": "GI50", "setting": "SF-295", "value": "2.05 µM (inactive)"}, {"measurement": "GI50", "setting": "DU-145", "value": "3.29 µM (inactive)"}, {"measurement": "GI50", "setting": "Hs-578T", "value": "2.57 µM (inactive)"}, {"measurement": "GI50", "setting": "HL-60", "value": "1.69 µM (inactive)"}, {"measurement": "GI50", "setting": "SK-MEL-2", "value": "1.56 µM (inactive)"}, {"measurement": "GI50", "setting": "HOP-62", "value": "3.22 µM (inactive)"}, {"measurement": "GI50", "setting": "HT-29", "value": "2.18 µM (inactive)"}, {"measurement": "GI50", "setting": "U-251", "value": "1.85 µM (inactive)"}, {"measurement": "GI50", "setting": "CCRF-CEM", "value": "1.95 µM (inactive)"}, {"measurement": "GI50", "setting": "SF-539", "value": "3.15 µM (inactive)"}, {"measurement": "GI50", "setting": "SNB-19", "value": "3.27 µM (inactive)"}, {"measurement": "GI50", "setting": "RXF 393", "value": "3.1 µM (inactive)"}, {"measurement": "GI50", "setting": "NCI-H23", "value": "1.47 µM (inactive)"}, {"measurement": "GI50", "setting": "SW-620", "value": "3.72 µM (inactive)"}, {"measurement": "GI50", "setting": "MDA-MB-435", "value": "2.52 µM (inactive)"}, {"measurement": "GI50", "setting": "ACHN", "value": "2.63 µM (inactive)"}, {"measurement": "GI50", "setting": "NCI-H522", "value": "0.764 µM (active)"}, {"measurement": "GI50", "setting": "IGROV-1", "value": "2.99 µM (inactive)"}, {"measurement": "GI50", "setting": "HCT-15", "value": 2.64, "unit": "µM"}, {"measurement": "GI50", "setting": "HOP-92", "value": "0.889 µM (active)"}, {"measurement": "GI50", "setting": "A498", "value": "1.75 µM (inactive)"}, {"measurement": "GI50", "setting": "Malme-3M", "value": "1.73 µM (inactive)"}, {"measurement": "GI50", "setting": "RPMI-8226", "value": "0.426 µM (active)"}, {"measurement": "GI50", "setting": "OVCAR-8", "value": "3.06 µM (inactive)"}, {"measurement": "GI50", "setting": "SK-OV-3", "value": "2.86 µM (inactive)"}, {"measurement": "GI50", "setting": "SK-MEL-5", "value": "0.544 µM (active)"}]}]}
